Experimental data from ChEMBL document CHEMBL4028825, “Pharmacological evaluation of a novel series of urea, thiourea and guanidine derivatives as P2X7 receptor antagonists” (Bioorg Med Chem Lett, 2017).

The compounds below were run against T1, P2X purinoceptor 7 (Homo sapiens, UniProt Q99572) (assay: Antagonist activity at P2X7 receptor in human THP1 cells assessed as inhibition of BzATP-induced YO-PRO-1 Iodide uptake measured every 30 secs for 1 hr by fluorescence assay). Details: not given.
T1 sequence (Q99572 whole entry): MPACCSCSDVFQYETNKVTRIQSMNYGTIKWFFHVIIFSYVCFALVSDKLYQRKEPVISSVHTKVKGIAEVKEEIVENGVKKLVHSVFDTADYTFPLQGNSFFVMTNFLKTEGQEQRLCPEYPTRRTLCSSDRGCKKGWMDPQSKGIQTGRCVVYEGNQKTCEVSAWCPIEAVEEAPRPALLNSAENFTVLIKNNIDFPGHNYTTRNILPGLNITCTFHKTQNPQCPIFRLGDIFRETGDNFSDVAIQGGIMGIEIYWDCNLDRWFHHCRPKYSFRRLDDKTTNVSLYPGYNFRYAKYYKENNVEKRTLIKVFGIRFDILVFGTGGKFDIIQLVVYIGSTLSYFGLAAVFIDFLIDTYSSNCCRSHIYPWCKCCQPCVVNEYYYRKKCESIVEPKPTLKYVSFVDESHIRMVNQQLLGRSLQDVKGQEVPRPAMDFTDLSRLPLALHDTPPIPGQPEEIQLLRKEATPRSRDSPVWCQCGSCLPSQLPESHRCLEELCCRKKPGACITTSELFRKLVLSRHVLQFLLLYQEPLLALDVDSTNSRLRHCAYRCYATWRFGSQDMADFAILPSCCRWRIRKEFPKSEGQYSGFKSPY
Assay type: cell-based

Q: For `N=C(NCC12CC3CC(CC(C3)C1)C2)Nc1ccccc1`, which IC50 is on record?
A: Nd(Insoluble)

Same assay, conditions: read-out: IC50

Q: With `O=C(NCC12CC3CC(CC(C3)C1)C2)Nc1ccccc1` as the compound, how does the IC50 read?
A: 4.96 µM

Q: With `O=C(NCc1ccccc1)NCC12CC3CC(CC(C3)C1)C2` as the compound, how does the IC50 read?
A: 4.54 µM

Q: Which IC50 does the source give for `N=C(NCc1ccccc1)NCC12CC3CC(CC(C3)C1)C2` here?
A: > 10 µM

Q: How did the IC50 turn out when `S=C(NCC12CC3CC(CC(C3)C1)C2)Nc1ccccc1` was run?
A: 2.42 µM

Q: For `S=C(NCc1ccccc1)NCC12CC3CC(CC(C3)C1)C2`, which IC50 is on record?
A: 4.24 µM

Q: Which IC50 does the source give for `O=C(NCc1ccccn1)NCC12CC3CC(CC(C3)C1)C2` here?
A: 5.95 µM

Q: For `O=C(NCc1cccnc1)NCC12CC3CC(CC(C3)C1)C2`, which IC50 is on record?
A: 3.38 µM

Q: For `O=C(NCCc1ccccc1)NCC12CC3CC(CC(C3)C1)C2`, which IC50 is on record?
A: 6.41 µM

Q: `O=C(NCc1ccncc1)NCC12CC3CC(CC(C3)C1)C2` was tested. Which IC50 did it give?
A: 6.75 µM
